Measurements: patent publication EP0133795B1 (THE McLEAN HOSPITAL CORPORATION, priority 1983, dated 1985)
“Also recorded” adds a separate entry of the source.

Experiments:
[1] = Comparative brain/liver uptake of 14C-labeled compounds (Brain Penetration Index); settings: for increase of 5-min BPI over GABA: 5 min after s.c. injection, relative to GABA; for time at which liver levels reach a maximum: s.c., mice
Method: The criterion used herein for measuring the extent to which a compound, from which the radical A is derived, crosses the blood-brain barrier is based on the uptake of this compound by the brain relative to its uptake by the liver. […] Measurements of the quantity of a compound present in brain and liver at 5 minutes after a subcutaneous (s.c.) injection were used to calculate a Brain Penetration Index (BPI), with the equation: [formula]
This is the amount of the compound present per gram of brain tissue as a percent of the amount per gram of liver tissue.
This procedure has the advantage that even for a sparingly soluble lipid ester, which tends to remain largely at the site of the injection and slowly diffuse into the circulation, its level in the liver will reflect the amount available rather than the initial dose injected.
The uptake of a ^14C-labeled compound into brain was compared with the uptake into liver of the same animal.
All determinations were carried out at 5 min after injection. The volumes of the injected doses into mice (body weight, 18-24 g) for the i.v., i.p., and s.c. doses were 0.15, 0.3 and 0.5 ml, respectively. […] Each tissue was homogenized in 8 ml of pyridine in a glass homogenizer.
Each labeled test compound was injected as a solution in 0.5 ml of saline (Compound 7) or in 25% propylene glycol in water (Compounds 1, 5, 6) subcutaneously (s.c.) into young adult Balb/c mice (18-24 g body weight). After 5 min (or longer) animals were sacrificed and the brain and liver removed, weighed and homogenized respectively in 8 ml and 10 ml of brain protein solvent (1 % (w/v) sodium dodecyl sulfate in 6 M urea and 19 mM EDTA, pH 7.4, 0.03 M phosphate). Aliquots (0.5 ml) of the homogenates were mixed with 10 ml of Aquasol 2 (New England Nuclear) and counted in a Beckman liquid scintillation counter. The total uptake of each compound per g brain and liver tissue was calculated. The proportion of uptake into brain as compared to liver (100%) of the same animal was designated as the Brain Penetration Index (BPI), expressed as a percentage typically at 5 min after injection.
Each of the ^14C-labeled Compounds 26, 28 and 30 were in 125 µl of the propylene glycol diluted with water up to 0.5 ml, and then injected subcutaneously into test Balb/c mice (20 ± 2 g weight). After 5 min the animals were sacrificed and the brain and liver were removed, weighed and homogenized in 8 ml and 10 ml of brain protein solvent, respectively. Next 0.5 ml aliquots were mixed with 10 ml of Aquasol 2 (New England Nuclear Corp., Boston, MA) and counted in a Beckman liquid scintillation counter. The data for the label in each tissue were used to calculate the total quantity of the compound present in brain and liver per gram of tissue. The ratio of the amount in brain as a percent of that present in liver at 5 min was taken as the Brain Penetration Index (BPI). Measurements at longer uptake times were also obtained to evaluate the accumulation of the compounds in the brain.

[2] = system: general motor activity of mice; test: General locomotor activity of mice (Stoelting electronic activity monitor); assay type: in vivo, Balb/c mice; settings: for In Vivo Inhibition of General Motor Activity: graded 0-5; for effect on motor activity at low doses: 10 mg/kg (19 µmol/kg) or below, 10 mg/kg
Method: The effect of intraperitoneal (i.p.) injections of test compounds on the general motor activity of mice during a 60-min period was determined in a Stoelting electronic activity monitor. Dose-response curves were obtained from which the half-maximally effective values were calculated and the results are shown in Table V.
The compounds were dissolved in 25% (vols.) propylene glycol in water and injected i.p. into Balb/c mice (18-24 g). Dose-response measurements were obtained for 6 animals per dose or time point. Activity was monitored for 60 min using a Stoelting Electronic Activity Monitor (EAM) apparatus to assess the general motor activity of the animals.
The general locomotor activity of mice was measured in the Stolting activity monitor apparatus during 60 min after an intraperitoneal (i.p.) injection of a test compound.

[3] = system: bicuculline-induced epileptic seizures; test: Delay of onset of bicuculline-induced seizures (anticonvulsant activity); assay type: in vivo, mouse; settings: for anticonvulsant properties: administered at doses of 30 mg/kg; for In Vivo Delay of Time of Onset of Bicuculline-induced seizures: graded 0-5
Method: In a second behavioral test, the ability of a substance to prevent or delay the onset of biculline-induced epileptic seizures was measured. […] At 24 hr after i.p. injection of the cholesteryl derivative at a dose of 30 mg/kg (64 pmol/kg), the onset of seizures was delayed by 30% after an acute i.p. injection of bicuculline at 0.3 mg/kg. […] The dexamethasone and butyl esters had no effect.
The compounds were also injected i.p. at 1, 6 and 24 hr before the administration of bicuculline (0.3 mg/kg) s.c. The latency to the onset of generalized tonic-clonic epileptic seizures and the protection against the lethality of bicuculline were measured and evaluated as a percent of the data for vehicle-injected controls. No significant changes were obtained at the 1 hr and 6 hr time points. At the 24 hr time, however, some compounds delayed while others accelerated the onset of seizures.
The effect of the compound to delay the onset of a bicuculline-induced seizures was evaluated.
The ability of a substance to delay the onset of bicuculline-induced epileptic seizures in the mouse was measured (Table X). […] At 24 hr after i.p. injection of the cholesteryl derivative (6) at a dose of 30 mg/kg (64 pmol/kg), the onset of seizures was delayed by 30% (as compared to saline controls) after an acute i.p. injection of bicuculline at 0.3 mg/kg. […] The dexamethasone and butyl esters had no effect on seizures in mice.

stereotypic behavior = test: Stereotypy behavior test (apomorphine or D-amphetamine induced); assay type: in vivo, mice
Method: Stereotypy tests were carried out by the method of A. Campbell et al, Neuropharmacol. 21, 953 (1982). Test mice were pretreated with Compound 26 (i.p. injection), then 15 min later apomorphine or D-amphetamine sulfate was injected i.p. The animals were observed every 10 min and rated for stereotypic behavior in comparison to controls.
Rating scale: • 0 = no stereotypy • 1 = discontinuous sniffing • 2 = continuous sniffing • 3 = continuous sniffing and jaw movements
The average total score per animal was obtained (maximum positive score = 18) over a 60-min period. A compound which depresses this score is considered to have properties of a neuroleptic with a potential for use as an antipsychotic agent. The results (see Table VIII) show a pronounced reduction of stereotypy, down to 24% of control.

[4] = n-Octanol/water partition coefficient; assay type: physicochemical; settings: 5 ml n-octanol / 5 ml water, stirring 18 hours; read-out: KOW: Octanol/Water Partition Coefficient (converted)
Method: A Partition Coefficient was defined by the equation: [formula] representing the amount of the ester taken up per ml of n-octanol relative to the amount of the same compound taken up per ml of water.
The n-octanol/water partition coefficients were obtained from measurements of the distribution of 1, 3, 5 and 6 pmol quantities of each ^14C-labeled compound into a mixture of 5 ml of n-octanol and 5 ml water. At each concentration, the amount of labeled compound in the aqueous and n-octanol phases was calculated from the amount of radioactive material present after stirring for 18 hours.

[5] = mouse, in vivo
[6] = system: general motor activity of mice; test: General locomotor activity of mice (Stoelting electronic activity monitor); assay type: in vivo, Balb/c mice; settings: Mus musculus, ip, 1 h; i.p.; 60-min general motor activity vs vehicle-injected and uninjected controls; 8 animals per dose
in vivo = settings: mouse, sc
[7] = 188 μmol/kg s.c., 5 min, Balb/c mice, mean ± S.E.M. (3 measurements)
[8] = 200 μmol/kg s.c., 60 min, Balb/c mice
[9] = 360 μmol/kg s.c., 180 min, Balb/c mice
[10] = Table IX summary, 5-min Brain Penetration Index
[11] = 20 μmol/kg s.c., 60 min, Balb/c mice
[12] = 60 μmol/kg s.c., 240 min, Balb/c mice
[13] = 67 μmol/kg s.c., 5 min, Balb/c mice, mean ± S.E.M. (3 measurements)
[14] = 170 μmol/kg s.c., 60 min, Balb/c mice

In the case of CC/C=C\C/C=C\C/C=C\CCCCCCCC(=O)OCC(COC(=O)CCCN)OC(=O)CCCN (stereo not shown) [Compound 26, 1-linolenoyl-2,3-(gamma-aminobutyroyl)propane-1,2,3-triol], the “(BRAIN)” value [1, 7] is reported as 3.0 ± 0.2 nmol/g, the “(LIVER)” value [1, 7] is reported as 3.3 ± 0.2 nmol/g and the BPI [1, 7] is reported as 90±13%. For the same compound, the “(BRAIN)” value [1, 8] was 2.4 nmol/g, the “(LIVER)” value [1, 8] was 2.9 nmol/g and the BPI [1, 8] was 87%. For the same compound, the “(BRAIN)” value [1, 9] was 9.4 nmol/g, the “(LIVER)” value [1, 9] was 5.5 nmol/g and the BPI [1, 9] was 170%. For the same compound, the “increase of 5-min BPI over GABA” value [1] was 90 fold, the BPI [1, 10] was 90 and the “time at which liver levels reach a maximum” value [1] was 45 to 60 min. The ED50 ([2]; Mus musculus, ip, 1 h, depression of locomotor activity at high doses, Figure 2) was 36 mg/kg, the “In Vivo Inhibition of General Motor Activity” value [2] was 4 and the “effect on motor activity at low doses” value [2] was “enhancing locomotor activity; also recorded: enhances motor activity”. The “effect on motor activity at low doses” value ([2]; listed as monolinolenoyl-diGABA glyceride) was “stimulating activity”, the anticonvulsant properties [3] was “only weak anticonvulsant properties” and the “In Vivo Delay of Time of Onset of Bicuculline-induced seizures” value [3] was 4. The “Stereotypy score induced by D-Amphetamine Sulfate” value (stereotypic behavior; 170 μmole/kg i.p. pretreatment, D-amphetamine sulfate 3 mg/kg, total score over 60 min (max 18), n = 4) was 3.3 ± 0.9, the “Stereotypy score induced by Apomorphine” value (stereotypic behavior; 170 μmole/kg i.p. pretreatment, apomorphine 1 mg/kg, total score over 60 min (max 18), n = 4) was 8 ± 3.6 and the “Stereotypy (% of control), D-Amphetamine Sulfate” value (stereotypic behavior; 170 μmole/kg, D-amphetamine sulfate 3 mg/kg) was 24 % of control. The “Stereotypy (% of control), Apomorphine” value (stereotypic behavior; 170 μmole/kg, apomorphine 1 mg/kg) was 52 % of control, the logP at 18 h [4] was 0.322 and the “level present in the brain at ED50” value [5] was 2.1. The ED50 [6] was 69 µmol/kg, the remaining at 4 h (in vivo; brain) was 60% and the remaining at 4 h (in vivo; kidney) was 10%. It also gave a remaining at 4 h (in vivo; liver) of 30%.

With CC/C=C\C/C=C\C/C=C\CCCCCCCC(=O)OCC(COC(=O)CCCN)OC(=O)CCCCCCC/C=C\C/C=C\C/C=C\CC (stereo not shown) [Compound 28, 1,2-dilinolenoyl-3-(gamma-aminobutyroyl)propane-1,2,3-triol] the “(BRAIN)” value [1, 11] was 1.4 nmol/g, the “(LIVER)” value [1, 11] was 3.1 nmol/g and the BPI [1, 11] was 44%. For the same compound, the “(BRAIN)” value [1, 12] was 7.1 nmol/g, the “(LIVER)” value [1, 12] was 18.3 nmol/g and the BPI [1, 12] was 39%. For the same compound, the “(BRAIN)” value [1, 13] was 5.9 ± 0.4 nmol/g, the “(LIVER)” value [1, 13] was 4.7 ± 0.4 nmol/g and the BPI [1, 13] was 127±8.3%. The “(BRAIN)” value [1, 14] was 6.0 nmol/g, the “(LIVER)” value [1, 14] was 8.8 nmol/g and the BPI [1, 14] was 68%. For the same compound, the “increase of 5-min BPI over GABA” value [1] was 127 fold, the BPI [1, 10] was 127 and the “time at which liver levels reach a maximum” value [1] was 45 to 60 min. The “In Vivo Inhibition of General Motor Activity” value [2] was 4, the anticonvulsant properties [3] was “only weak anticonvulsant properties” and the “In Vivo Delay of Time of Onset of Bicuculline-induced seizures” value [3] was 5. The logP at 18 h [4] was 0.82, the “level present in the brain at ED50” value [5] was 1.7 and the ED50 [6] was 43 µmol/kg.
